According to PubChem BioAssay AID330 (DTP/NCI, 2004):
Values joined by “and” are separate entries in the source; they are usually repeats but may differ in a detail not shown here. Equal values may be shown once. Inconclusive results and toxic doses are left out. The calls were made as follows: active = survival T/C of 150% or more; inactive = T/C below 125% in these data. Numbered stars: 1 amine (or outer) side, 2 acyl side, 3 side chain; on linkers, the order of the positions; unused ones are H or OH. Peptide text beside a SMILES is read from it. ξ: configuration not given here. ξγGlu = O=C(O)C(CCC(=O)[*:2])N[*:1]

Test system: P388 leukemia ip, CD2F1 mice, survival T/C
Experiment: NCI In Vivo Anticancer Drug Screen. Data for tumor model P388 Leukemia (intraperitoneal) in CD2F1 (CDF1) mice
Settings: endpoint: median survival time, higher = longer survival
Procedure, shortened: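 Mice carrying the transplanted tumor received test compound or vehicle. Survival was recorded in each group, and the value is the treated-group measurement divided by that of the vehicle-treated control group.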

[1] = dose: 50.0 mg/kg/injection, schedule: Q01DX009 (ip), vehicle: saline with Tween-80
[2] = dose: 100.0 mg/kg/injection, schedule: Q01DX009 (ip), vehicle: saline with Tween-80
[3] = dose: 50.0 mg/kg/injection, schedule: Q01DX005 (ip), vehicle: saline with Tween-80
[4] = dose: 100.0 mg/kg/injection, schedule: Q01DX005 (ip), vehicle: saline with Tween-80
[5] = dose: 100.0 mg/kg/injection, schedule: Q01DX009 (ip), vehicle: saline
[6] = dose: 200.0 mg/kg/injection, schedule: Q01DX009 (ip), vehicle: saline
[7] = dose: 50.0 mg/kg/injection, schedule: Q01DX005 (ip), vehicle: Klucel (hydroxypropylcellulose) (HPC)
[8] = dose: 100.0 mg/kg/injection, schedule: Q01DX005 (ip), vehicle: Klucel (hydroxypropylcellulose) (HPC)
[9] = dose: 200.0 mg/kg/injection, schedule: Q01DX005 (ip), vehicle: Klucel (hydroxypropylcellulose) (HPC)
[10] = dose: 50.0 mg/kg/injection, schedule: Q01DX005 (ip), vehicle: saline
[11] = dose: 100.0 mg/kg/injection, schedule: Q01DX005 (ip), vehicle: saline
[12] = dose: 200.0 mg/kg/injection, schedule: Q01DX005 (ip), vehicle: saline

Measured: T/C

O=C1C=CC(O)C1(O)CO (stereo not given)
inactive: dose: 2.5 mg/kg/injection, schedule: Q01DX009 (ip), vehicle: saline + alcohol 98 % of control | dose: 5.0 mg/kg/injection, schedule: Q01DX009 (ip), vehicle: saline + alcohol 100 % of control | dose: 10.0 mg/kg/injection, schedule: Q01DX009 (ip), vehicle: saline + alcohol 105 % of control | dose: 20.0 mg/kg/injection, schedule: Q01DX009 (ip), vehicle: saline + alcohol 101 % of control

O=[N+]([O-])c1ccc(NCc2ccccc2)nc1
inactive: [1] 107 % of control | [2] 117 % of control | dose: 200.0 mg/kg/injection, schedule: Q01DX009 (ip), vehicle: saline with Tween-80 112 % of control

CCN(CC)c1ccc2nc3ccc(N=Nc4ccc(O)cc4)cc3[n+](-c3ccccc3)c2c1
inactive: [3] 118 % of control | [4] 114 % of control

O=C1C=CC(=O)O1 (tested in a mixture with another compound)
inactive: dose: 6.25 mg/kg/injection, schedule: Q01DX009 (ip), vehicle: saline 117 % of control | dose: 12.5 mg/kg/injection, schedule: Q01DX009 (ip), vehicle: saline 100 % of control | dose: 25.0 mg/kg/injection, schedule: Q01DX009 (ip), vehicle: saline 102 % of control and 108 % of control and 89 % of control | dose: 25.0 mg/kg/injection, schedule: Q04DX003 (ip), vehicle: saline 120 % of control | dose: 50.0 mg/kg/injection, schedule: Q01DX009 (ip), vehicle: saline 108 % of control [middle of 4 runs] | [5] 100 % of control and 108 % of control and 109 % of control | dose: 150.0 mg/kg/injection, schedule: Q01DX009 (ip), vehicle: saline 120 % of control | [6] 108 % of control and 115 % of control and 120 % of control

CC1CC(=O)c2cc3oc(=O)n(C)c3cc21 (stereo not given)
inactive: [7] 105 % of control | [8] 94 % of control

COc1ccc2c(NCCNc3c4ccccc4nc4cc(OC)ccc34)c3ccccc3nc2c1
inactive: dose: 0.62 mg/kg/injection, schedule: Q01DX009 (ip), vehicle: other 90 % of control | dose: 1.25 mg/kg/injection, schedule: Q01DX009 (ip), vehicle: other 90 % of control | dose: 2.5 mg/kg/injection, schedule: Q01DX009 (ip), vehicle: other 96 % of control | dose: 5.0 mg/kg/injection, schedule: Q01DX009 (ip), vehicle: other 100 % of control | dose: 10.0 mg/kg/injection, schedule: Q01DX009 (ip), vehicle: other 106 % of control | dose: 20.0 mg/kg/injection, schedule: Q01DX009 (ip), vehicle: other 96 % of control

COC(c1nc(N)no1)c1c(Cl)cccc1Cl (stereo not given)
inactive: [7] 97 % of control | [8] 91 % of control | [9] 92 % of control

NC(CCC(=O)NCC(=O)NCC(=O)O)C(=O)O (stereo not drawn) (ξγGlu-Gly-Gly-OH)
inactive: [10] 100 % of control | [11] 97 % of control | [12] 102 % of control

c1ccc(-c2cc(Nc3ccc4c(c3)OCO4)c3cc4c(cc3n2)OCO4)cc1
inactive: [7] 101 % of control | [8] 101 % of control | [9] 97 % of control

CCN(CC)CCNC(=O)c1noc2cc([N+](=O)[O-])ccc12
inactive: dose: 12.5 mg/kg/injection, schedule: Q01DX005 (ip), vehicle: saline 109 % of control | dose: 25.0 mg/kg/injection, schedule: Q01DX005 (ip), vehicle: saline 115 % of control | [10] 103 % of control and 97 % of control

O=C(Nc1ccc(C(=O)O)cc1)Nc1ccc(C(=O)O)cc1
inactive: dose: 100.0 mg/kg/injection, schedule: Q04DX002 (ip), vehicle: Klucel (hydroxypropylcellulose) (HPC) 99 % of control | dose: 200.0 mg/kg/injection, schedule: Q04DX002 (ip), vehicle: Klucel (hydroxypropylcellulose) (HPC) 109 % of control

CONC(=O)Cc1cccc(OC)c1
inactive: dose: 25.0 mg/kg/injection, schedule: Q01DX009 (ip), vehicle: saline with Tween-80 104 % of control | [1] 114 % of control | [2] 98 % of control

CCN(CC)CCCC(C)Nc1cc(/C=C/c2ccc(Cl)cc2)nc2cc(N(C)C)ccc12 (stereo not given)
inactive: dose: 3.12 mg/kg/injection, schedule: Q01DX009 (ip), vehicle: Klucel (hydroxypropylcellulose) (HPC) 107 % of control | dose: 6.25 mg/kg/injection, schedule: Q01DX009 (ip), vehicle: Klucel (hydroxypropylcellulose) (HPC) 110 % of control | dose: 12.5 mg/kg/injection, schedule: Q01DX009 (ip), vehicle: Klucel (hydroxypropylcellulose) (HPC) 98 % of control and 102 % of control

F[B-](F)(F)F
inactive: dose: 12.5 mg/kg/injection, schedule: Q01DX009 (ip), vehicle: gum acacia 111 % of control | dose: 25.0 mg/kg/injection, schedule: Q01DX009 (ip), vehicle: gum acacia 118 % of control | dose: 50.0 mg/kg/injection, schedule: Q01DX009 (ip), vehicle: gum acacia 109 % of control and 114 % of control | dose: 100.0 mg/kg/injection, schedule: Q01DX009 (ip), vehicle: gum acacia 123 % of control

NC(Cc1ccccc1)C(=O)CCl (stereo not given)
inactive: dose: 12.5 mg/kg/injection, schedule: Q01DX001 (ip), vehicle: saline 104 % of control | dose: 25.0 mg/kg/injection, schedule: Q01DX001 (ip), vehicle: saline 100 % of control

Cc1cc(N=Nc2cc(C)c(NC(=O)c3ccc(NC(=O)c4ccc(N)cc4)cc3)cc2C)ccc1N=Nc1ccc2cc(S(=O)(=O)O)cc(S(=O)(=O)O)c2c1
inactive: [3] 110 % of control | [4] 111 % of control | dose: 200.0 mg/kg/injection, schedule: Q01DX005 (ip), vehicle: saline with Tween-80 110 % of control

CCCCCCCCC1OCN2CCCCC12 (stereo not given)
inactive: [10] 108 % of control | [11] 102 % of control | [12] 100 % of control

CN1C(=O)c2ccccc2C2(C1=O)C(C#N)=C(N)Oc1c2c2ccccc2c(=O)n1C (stereo not given)
inactive: dose: 60.0 mg/kg/injection, schedule: Q01DX005 (ip), vehicle: Klucel (hydroxypropylcellulose) (HPC) 99 % of control | dose: 120.0 mg/kg/injection, schedule: Q01DX005 (ip), vehicle: Klucel (hydroxypropylcellulose) (HPC) 95 % of control | dose: 240.0 mg/kg/injection, schedule: Q01DX005 (ip), vehicle: Klucel (hydroxypropylcellulose) (HPC) 88 % of control

c1ccc2c(C3CCCN4CCCCC34)c[nH]c2c1 (stereo not given)
inactive: dose: 12.5 mg/kg/injection, schedule: Q04DX002 (ip), vehicle: saline with Tween-80 105 % of control | dose: 25.0 mg/kg/injection, schedule: Q04DX002 (ip), vehicle: saline with Tween-80 102 % of control | dose: 50.0 mg/kg/injection, schedule: Q04DX002 (ip), vehicle: saline with Tween-80 100 % of control

CC(Cc1cccc2ccccc12)C(N)=O (stereo not given)
inactive: [7] 100 % of control | [8] 99 % of control | [9] 99 % of control

Oc1ccccc1C(Nc1nc2ccccc2s1)c1ccc2cccnc2c1O (stereo not given)
inactive: [5] 90 % of control | dose: 100.0 mg/kg/injection, schedule: Q04DX003 (ip), vehicle: saline 95 % of control | [6] 100 % of control | dose: 200.0 mg/kg/injection, schedule: Q04DX003 (ip), vehicle: saline 91 % of control | dose: 400.0 mg/kg/injection, schedule: Q01DX009 (ip), vehicle: saline 90 % of control | dose: 400.0 mg/kg/injection, schedule: Q04DX003 (ip), vehicle: saline 91 % of control

Cc1cc2c(cc1C)NC(C)CC(=O)N2 (stereo not given)
inactive: dose: 100.0 mg/kg/injection, schedule: Q04DX003 (ip), vehicle: saline with Tween-80 109 % of control | dose: 200.0 mg/kg/injection, schedule: Q04DX003 (ip), vehicle: saline with Tween-80 95 % of control

CC(=NCc1ccccc1)/C(=N\O)C(=O)Nc1ccc(Cl)cc1
inactive: dose: 400.0 mg/kg/injection, schedule: Q04DX003 (ip), vehicle: saline with Tween-80 96 % of control
